Values of other authors as cited in paper PMC8583936, “Machine Learning Assisted Approach for Finding Novel High Activity Agonists of Human Ectopic Olfactory Receptors” (International Journal of Molecular Sciences, 2021).
Read-outs that look alike come from different tables or passages of the source.

Tests used:
OR1A1 = target: T1, OR1A1 (Homo sapiens, UniProt Q9P1Q5); conditions: cited from earlier work
T1 sequence (Q9P1Q5 1-309): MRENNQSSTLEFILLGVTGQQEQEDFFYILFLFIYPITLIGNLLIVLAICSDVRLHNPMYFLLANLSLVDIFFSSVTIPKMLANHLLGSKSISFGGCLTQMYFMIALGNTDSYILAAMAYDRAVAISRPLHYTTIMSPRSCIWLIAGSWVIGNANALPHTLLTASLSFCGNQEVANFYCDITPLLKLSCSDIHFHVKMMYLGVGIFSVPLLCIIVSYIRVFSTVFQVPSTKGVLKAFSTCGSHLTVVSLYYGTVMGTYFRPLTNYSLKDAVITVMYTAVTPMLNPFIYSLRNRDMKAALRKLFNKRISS

OR2W1 = target: T2, OR2W1 (Homo sapiens, UniProt Q9Y3N9); conditions: cited from earlier work
T2 sequence (Q9Y3N9 1-320): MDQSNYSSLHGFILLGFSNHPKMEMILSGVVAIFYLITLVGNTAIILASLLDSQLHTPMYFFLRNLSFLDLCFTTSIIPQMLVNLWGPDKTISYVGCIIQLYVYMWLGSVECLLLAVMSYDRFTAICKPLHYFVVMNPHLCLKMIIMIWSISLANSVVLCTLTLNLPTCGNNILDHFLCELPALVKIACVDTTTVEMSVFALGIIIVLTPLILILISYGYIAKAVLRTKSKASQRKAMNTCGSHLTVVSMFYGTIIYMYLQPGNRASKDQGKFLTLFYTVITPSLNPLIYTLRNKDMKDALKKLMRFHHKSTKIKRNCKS

[1] = Table S1, ref Supplement references [1]-[9] as printed after each odorant name
[2] = Table S2, ref Supplement references [2]-[12] as printed after each odorant name

Compound	Class (agonist / non-agonist / conflicting info.) for OR1A1 (OR1A1; [1])	Class (agonist / non-agonist / antagonist / conflicting info.) for OR2W1 (OR2W1; [2])	Class (agonist / non-agonist / conflicting info.) for OR1A1 (OR1A1)	Class (agonist / non-agonist / antagonist / conflicting info.) for OR2W1 (OR2W1)
CC(=O)OC/C=C(\C)CCC=C(C)C [Geranyl acetate]	Conflicting info.	Conflicting info.		
COc1ccccc1O [Guaiacol]	Non-agonist	Non-agonist		
CC(C=O)Cc1ccc2c(c1)OCO2 (stereo not shown) [Helional]			Agonist	Agonist
CCCCCCC=O [Heptanal]	Conflicting info.	Agonist		
CCCCCCC(=O)O [Heptanoic acid]	Non-agonist	Non-agonist		
CCCCCCCO [Heptanol]	Conflicting info.	Agonist		
CCCCCCCOC(=O)C(C)C [Heptyl isobutyrate]			Non-agonist	Non-agonist
CCCCCC=O [Hexanal]	Non-agonist	Conflicting info.		
CCCCCC(=O)O [Hexanoic acid]			Non-agonist	Non-agonist
CCCCCCO [Hexanol]	Non-agonist	Conflicting info.		
CCCCCCOC(C)=O [Hexyl acetate]	Non-agonist	Agonist		
CCC1OC(C)=C(O)C1=O (stereo not shown) [Homofuraneol]	Non-agonist	Non-agonist		
CC(CC=O)CCCC(C)(C)O (stereo not shown) [Hydroxy-citronellal]	Conflicting info.	Non-agonist		
CC(=O)OCCC(C)C [Isoamyl acetate]	Non-agonist	Agonist		
CC(C)CO [Isobutyl alcohol]	Non-agonist	Non-agonist		
CC(C)CN [Isobutyl amine]	Conflicting info.	Antagonist		
CC(C)C=O [Isobutylraldehyde]	Non-agonist	Non-agonist		
CC(C)C(=O)O [Isobutyric acid]	Non-agonist	Non-agonist		
CC(C)CC=O [Isovaleraldehyde]	Non-agonist	Non-agonist		

Compound	Class (agonist / non-agonist / conflicting info.) for OR1A1 (OR1A1; [1])	Class (agonist / non-agonist / antagonist / conflicting info.) for OR2W1 (OR2W1; [2])	Class (agonist / non-agonist / conflicting info.) for OR1A1 (OR1A1)	Class (agonist / non-agonist / antagonist / conflicting info.) for OR2W1 (OR2W1)
CC(C)CC(=O)O [Isovaleric acid]	Non-agonist	Antagonist		
C=CC(C)(O)CCC=C(C)C (stereo not shown) [Linalool]	Conflicting info.	Non-agonist		
CC(C)(O)CCCC1=CCC(C=O)CC1 (stereo not shown) [Lyral]	Conflicting info.	Non-agonist		
Cc1occc(=O)c1O [Maltol]	Non-agonist	Non-agonist		
CC(C)[C@@H]1CC[C@@H](C)CC1=O [Menthone]	Conflicting info.	Non-agonist		
CSCCC=O [Methional]	Non-agonist	Non-agonist		
CSCCCO [Methionol]	Non-agonist	Non-agonist		
CSSc1ccoc1C [Methyl 2-methyl-3-furyl disulfide]	Non-agonist	Non-agonist		
CCC(C)C(=O)OC (stereo not shown) [Methyl 2-methylbutyrate]	Non-agonist	Non-agonist		
COC(=O)c1ccccc1N [Methyl anthranilate]			Non-agonist	Agonist
COC(=O)c1ccccc1 [Methyl benzoate]			Non-agonist	Non-agonist
CCCC(=O)OC [Methyl butyrate]			Non-agonist	Non-agonist
COC(=O)C=Cc1ccccc1 [Methyl cinnamate]	Non-agonist	Agonist		
CSSCc1ccco1 [Methyl furfuryl disulfide]	Conflicting info.	Non-agonist		
COC(=O)C(C)C [Methyl isobutyrate]	Non-agonist	Non-agonist		
CCCSSSC [Methyl propyl trisulfide]	Non-agonist	Non-agonist		
COC(=O)c1ccccc1O [Methyl salicylate]	Conflicting info.	Agonist		
C=CC(=C)CCC=C(C)C [Myrcene]	Non-agonist	Non-agonist		
CCCCCOC(C)=O [N-amyl acetate]	Non-agonist	Agonist		

Compound	Class (agonist / non-agonist / conflicting info.) for OR1A1 (OR1A1; [1])	Class (agonist / non-agonist / antagonist / conflicting info.) for OR2W1 (OR2W1; [2])	Class (agonist / non-agonist / conflicting info.) for OR1A1 (OR1A1)	Class (agonist / non-agonist / antagonist / conflicting info.) for OR2W1 (OR2W1)
O=C(O)CCCCCCCC(=O)O [Nonanedioic acid]	Non-agonist	Non-agonist		
CCCCCCCCCS [Nonanethiol]	Agonist	Agonist		
CCCCCCCCC(=O)O [Nonanoic acid]			Conflicting info.	Agonist
CCCCCCCCCO [Nonanol]	Non-agonist	Agonist		
CCCCCCCC=O [Octanal]	Conflicting info.	Agonist		
CCCCCCCCS [Octanethiol]			Conflicting info.	Agonist
CCCCCCCC(=O)O [Octanoic acid]			Non-agonist	Conflicting info.
CCCCCCCCO [Octanol]	Conflicting info.	Agonist		
CCCCCCCCOC(=O)CCCCCCC [Octyl octanoate]	Conflicting info.	Antagonist		
C=C(C)c1ccc(C)cc1 [P,α-Dimethylstyrene]	Non-agonist	Agonist		
O=C(O)C=Cc1ccc(O)cc1 [P-Coumaric acid]	Non-agonist	Non-agonist		
CCCCC=O [Pentanal]	Non-agonist	Non-agonist		
CCCCCO [Pentanol]	Conflicting info.	Conflicting info.		
O=CCc1ccccc1 [Phenyl acetaldehyde]	Non-agonist	Non-agonist		
CC(=O)Oc1ccccc1 [Phenyl acetate]	Non-agonist	Non-agonist		
CC(=O)OCC=C(C)C [Prenyl acetate]	Non-agonist	Agonist		
CCC=O [Propanal]	Conflicting info.	Conflicting info.		
CCC(=O)O [Propionic acid]			Conflicting info.	Non-agonist
